The source of these data is PubChem BioAssay (NCI).

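Values below derive from 48-hour exposures of cells grown in 96-well plates, with endpoints linearly interpolated between the two concentrations bracketing the appropriate inhibition level. GI50: concentration for 50% inhibition of growth. TGI: concentration producing complete growth inhibition.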

Test systems include K-562 leukemia; IGROV1 ovarian; OVCAR-5 ovarian; HCT-116 colon; MCF7 breast; HOP-62 NSCLC; UO-31 renal; CCRF-CEM leukemia; MALME-3M melanoma; SR leukemia.
Experiment in all cases: NCI-60 cell line screen, 48 h

With `CC(=O)OCCCC#CC#Cc1cccc(=O)o1`, the GI50 in the test on K-562 leukemia was 5.38 µM; with IGROV1 ovarian it was 18.7 µM; in the test on OVCAR-5 ovarian, 22.3 µM; in the test on HCT-116 colon, 14.6 µM; in the test on MCF7 breast it was 20.3 µM; in the test with HOP-62 NSCLC it was 15.5 µM. In addition, the GI50 in the test with UO-31 renal is 3.52 µM. Besides, the TGI was 28.9 µM in the test on K-562 leukemia; more than 100 µM in the test on IGROV1 ovarian; 42.4 µM in the test with OVCAR-5 ovarian; 29.1 µM with HCT-116 colon; 43.5 µM in the test on MCF7 breast; 30.4 µM in the test on HOP-62 NSCLC. The same compound displayed a TGI in the test on UO-31 renal of more than 100 µM.

As to `O=c1cccc2n1CC1CNC[C@H]2C1`, the TGI in the test on K-562 leukemia, in the test with IGROV1 ovarian, with CCRF-CEM leukemia, in the test with OVCAR-5 ovarian, in the test on HCT-116 colon and in the test with MALME-3M melanoma was more than 100 µM each time. The TGI in the test on MCF7 breast, in the test on HOP-62 NSCLC and with UO-31 renal was more than 100 µM throughout.

As for `CC(C)=NNC(=S)NC12CC3CC(CC(C3)C1)C2`, the TGI in the test with K-562 leukemia, in the test on IGROV1 ovarian, with CCRF-CEM leukemia, in the test on SR leukemia, with OVCAR-5 ovarian and in the test on HCT-116 colon was more than 100 µM each time. In addition, the TGI in the test on HOP-62 NSCLC and in the test with UO-31 renal was more than 100 µM throughout.

Regarding `O=[N+]([O-])C=C1c2ccccc2-c2ccccc21`, the TGI is 6.34 µM with K-562 leukemia; 80.8 µM in the test on CCRF-CEM leukemia; 28.5 µM in the test on SR leukemia; 31.4 µM in the test with OVCAR-5 ovarian; 17.5 µM with HCT-116 colon; 31.3 µM in the test on HOP-62 NSCLC. In the test with UO-31 renal, this compound returned a TGI of 28.5 µM.

Turning to `Cc1ccc(OCCOCCOCCOCCOCCOc2ccc(C)n(O)c2=S)c(=S)n1O`, the GI50 is 0.0383 µM with K-562 leukemia; 0.0372 µM in the test on IGROV1 ovarian; 0.0504 µM in the test with CCRF-CEM leukemia; 0.0634 µM with OVCAR-5 ovarian; 0.0302 µM in the test with HCT-116 colon; 0.109 µM in the test with MALME-3M melanoma. Also, the GI50 is 0.0254 µM in the test with MCF7 breast, 0.0789 µM in the test with HOP-62 NSCLC and 0.0377 µM in the test with UO-31 renal. For the same compound, the TGI with K-562 leukemia is more than 100 µM; in the test on IGROV1 ovarian, more than 72.5 µM; with CCRF-CEM leukemia, more than 100 µM; in the test on OVCAR-5 ovarian, more than 100 µM; with HCT-116 colon, 27.5 µM; with MALME-3M melanoma, more than 34.6 µM. Moreover, the TGI is more than 69.7 µM with MCF7 breast, more than 84.6 µM in the test with HOP-62 NSCLC and 2.02 µM in the test on UO-31 renal.

Regarding `O=C1C(=O)N(c2ccc(Cl)cc2)C(=O)C(=Nc2cccc3c(=O)[nH][nH]c(=O)c23)C1c1nc2ccccc2o1` (configuration not stated), the TGI in the test with K-562 leukemia, in the test with IGROV1 ovarian, with CCRF-CEM leukemia, in the test with SR leukemia, in the test with OVCAR-5 ovarian and in the test on HCT-116 colon was more than 100 µM throughout. Also, the TGI with MALME-3M melanoma, with HOP-62 NSCLC and with UO-31 renal was more than 100 µM in each case.

Take `Cc1[nH]nc2ncc(C(=O)N3CCC[C@H]3c3ccc(Cl)cc3)cc12`: the GI50 was 37.1 µM in the test on K-562 leukemia; 66.1 µM with IGROV1 ovarian; 36.1 µM in the test with CCRF-CEM leukemia; more than 100 µM with OVCAR-5 ovarian; 33.1 µM in the test on HCT-116 colon; more than 100 µM with MALME-3M melanoma. Besides, the GI50 in the test with MCF7 breast is 41.6 µM; with HOP-62 NSCLC, more than 100 µM; in the test with UO-31 renal, 61.2 µM. Further, the TGI in the test with K-562 leukemia, in the test on IGROV1 ovarian, with CCRF-CEM leukemia, in the test with OVCAR-5 ovarian, in the test with HCT-116 colon and in the test with MALME-3M melanoma was more than 100 µM each time. Also, the TGI with MCF7 breast, with HOP-62 NSCLC and in the test with UO-31 renal was more than 100 µM each time.

As to `Cc1ccc(C2=Nc3ccccc3S(=O)C(c3ccc4c(c3)OCO4)C2)cc1` (configuration not stated), the TGI in the test with K-562 leukemia is 98.8 µM; in the test on IGROV1 ovarian, more than 100 µM; in the test on CCRF-CEM leukemia, 83.9 µM; with SR leukemia it was more than 100 µM; in the test with HCT-116 colon, 37.3 µM; in the test on MALME-3M melanoma it was more than 100 µM. For the same compound, the TGI in the test with HOP-62 NSCLC and in the test on UO-31 renal was more than 100 µM throughout.

Regarding `O=C(O)c1c2c(cc3c(=O)cc(-c4ccccc4)oc13)CCCC2`, the TGI with K-562 leukemia, with IGROV1 ovarian, with CCRF-CEM leukemia, in the test with OVCAR-5 ovarian, with HCT-116 colon and in the test with MALME-3M melanoma was more than 100 µM each time. In addition, the TGI in the test on HOP-62 NSCLC and in the test with UO-31 renal was more than 100 µM in each case.

With `COC(=O)C1[C@H](c2ccc3c(c2)OCO3)OC(=O)[C@]1(C(=O)OC)C(=O)c1ccc(OC)c(OC)c1` (some centres not stated), the TGI with K-562 leukemia, with IGROV1 ovarian, in the test with CCRF-CEM leukemia, in the test with SR leukemia, with OVCAR-5 ovarian and in the test on MALME-3M melanoma was more than 100 µM throughout. For the same compound, the TGI in the test on HOP-62 NSCLC and in the test on UO-31 renal was more than 100 µM each time.

In the case of `c1ccc2c(CNCCCCCCCCNCc3cccc4ccccc34)cccc2c1`, the TGI in the test with K-562 leukemia is 3.73 µM; in the test on IGROV1 ovarian, 16.2 µM; in the test with CCRF-CEM leukemia, 5.21 µM; in the test with OVCAR-5 ovarian it was 4.14 µM; in the test with HCT-116 colon it was 3.05 µM; in the test with MALME-3M melanoma, 3.41 µM. Also, the TGI in the test with HOP-62 NSCLC was found to be 30.1 µM; with UO-31 renal, 3.45 µM.

In the case of `Cc1ccc(C(=O)NCCN(C)C)c2nc3ccccc3cc12`, the TGI in the test with K-562 leukemia was more than 100 µM; in the test on IGROV1 ovarian, more than 100 µM; in the test on CCRF-CEM leukemia, more than 100 µM; with OVCAR-5 ovarian it was 8.71 µM; in the test on HCT-116 colon, 10.9 µM; in the test with MALME-3M melanoma it was more than 100 µM. The figures for the TGI with HOP-62 NSCLC and in the test on UO-31 renal were more than 100 µM and 11.1 µM, respectively.

On to `CN(/N=C\c1ccnc2ccccc12)c1ccccc1`, for which the TGI in the test with K-562 leukemia is 51.4 µM; in the test with IGROV1 ovarian it was more than 100 µM; in the test on CCRF-CEM leukemia, 45.1 µM; in the test on OVCAR-5 ovarian, 45.6 µM; with HCT-116 colon, 36 µM; with MALME-3M melanoma, 52.8 µM. Also, the TGI in the test on HOP-62 NSCLC is 81.6 µM; in the test with UO-31 renal, 54.4 µM.

`COC12OCCN(C)C1=CC(=O)C1(C)N=NCC12` (configuration not stated): the TGI in the test on K-562 leukemia, with IGROV1 ovarian, in the test with CCRF-CEM leukemia, in the test with HCT-116 colon, with MALME-3M melanoma and in the test with UO-31 renal was more than 100 µM throughout.
